Data on 15 compounds can be found in paper PMC8815882, “Screening the pandemic response box identified benzimidazole carbamates, Olorofim and ravuconazole as promising drug candidates for the treatment of eumycetoma” (PLoS Neglected Tropical Diseases, 2022).

Several values for one entry are separate records, joined by “and”; a condition that tells them apart may be missing. Equal entries are not always repeated. Where two headings read alike, the source gives them in different places.

The assay deals with M. mycetomatis genome strain MM55. Kind of assay: CLSI M38-A2 based in vitro susceptibility screening (XTT or resazurin), growth at fixed concentration. The conditions noted are these: for activity at 25 µM / activity at 100 µM / Percent fungal survival at 100 µM: Madurella mycetomatis; for Percent fungal survival at 100 µM: read-out: Percentage survival at 100um, 100 uM A (second replicate column). The format is cell-based, Madurella mycetomatis. (Tetrazolium dyes change colour on reduction, which living cells bring about.)

[1] abbreviates: 25 uM, mean of three replicates, read-out: Percentage survival at 25um, 25 uM mean.
Where [2] appears, read: 25 uM, replicate A, read-out: Percentage survival at 25um, 25 um A.
[3] abbreviates: 25 uM, replicate B, read-out: Percentage survival at 25um, 25 uM B.
Where [4] appears, read: 25 uM, replicate C, read-out: Percentage survival at 25um, 25 uM C.
Where [5] appears, read: 100 uM, mean of three replicates, read-out: Percentage survival at 100um, 100 uM mean.
Where [6] appears, read: 100 uM, replicate 1, read-out: Percentage survival at 100um, 100 uM A (first replicate column).
Setting [7] is: 100 uM, replicate 3, read-out: Percentage survival at 100um, 100 uM A (third replicate column).
[8] abbreviates: 25 uM, mean of replicates, MM55, read-out: Percentage survival at 25um, 25 uM mean.
Where [9] appears, read: 25 uM, replicate A, MM55, read-out: Percentage survival at 25um, 25 um A.
[10] abbreviates: 25 uM, replicate B, MM55, read-out: Percentage survival at 25um, 25 uM B.
Where [11] appears, read: 25 uM, replicate C, MM55, read-out: Percentage survival at 25um, 25 uM C.
[12] abbreviates: 100 uM, mean of replicates, MM55, read-out: Percentage survival at 100um, 100 uM mean.
The mark [13] stands for this setting: 100 uM, replicate 1, MM55, read-out: Percentage survival at 100um, 100 uM A.
Setting [14] is: 100 uM, replicate 2, MM55, read-out: Percentage survival at 100um, 100 uM A.
Setting [15] is: 100 uM, replicate 3, MM55, read-out: Percentage survival at 100um, 100 uM A.
Where [16] appears, read: 25 uM, mean, read-out: Percentage survival at 25um, 25 uM mean.
Setting [17] is: 100 uM, mean, read-out: Percentage survival at 100um, 100 uM mean.
[18] abbreviates: 100 uM, replicate (first column), read-out: Percentage survival at 100um, 100 uM A.
Where [19] appears, read: 100 uM, replicate (second column), read-out: Percentage survival at 100um, 100 uM A.
Where [20] appears, read: 100 uM, replicate (third column), read-out: Percentage survival at 100um, 100 uM A.
The mark [21] stands for this setting: 100 uM, first replicate column, read-out: Percentage survival at 100um, 100 uM A.
[22] abbreviates: 100 uM, second replicate column, read-out: Percentage survival at 100um, 100 uM A.
Setting [23] is: 100 uM, third replicate column, read-out: Percentage survival at 100um, 100 uM A.

For the compound `O=C(O)C(Cc1c[nH]c2ccccc12)N1C(=O)c2ccccc2C1=O` (stereo not shown) [MMV452821], the activity at 25 µM runs as follows: under setting [1], 80.9%; under setting [2], 99.3%; under setting [3], 91%; under setting [4], 52.5%. Moreover, the activity at 100 µM is, setting by setting: under setting [5], 96.8%; under setting [6], 102%; under setting [7], 92.9%. Further, for the setting “100 uM, replicate 2”, the Percent fungal survival at 100 µM was found to be 95.7%.

On to `CC(C)(C)c1ccc(C(Cn2cccc(C(F)(F)F)c2=O)NC2Cc3ccccc3C2)cc1` (stereo not shown) [MMV1634393], for which the activity at 25 µM by setting is: under setting [8], 62.5%; under setting [9], 51.3%; under setting [10], 64.6%; under setting [11], 71.7%. The activity at 100 µM reads like this: under setting [12], 66.7%; under setting [13], 63.7%; under setting [14], 74.2%; under setting [15], 62.2%.

`CN(Cc1ccc(C(C)(C)C)cc1)Cc1cccc2ccccc12` [MMV637104]: the activity at 25 µM reads like this: under setting [16], 40.9%; under setting [2], 58.2%; under setting [3], -0.523%; under setting [4], 64.9%. Besides, the activity at 100 µM under setting [17] is 61.2%, the activity at 100 µM under setting [18] was 61.4%, the activity at 100 µM under setting [19] was determined as 65.7% and the activity at 100 µM under setting [20] stood at 56.6%.

Regarding `COc1ccc2cc3[n+](cc2c1OCCN(CCn1cncn1)Cc1ccc(F)cc1F)CCc1cc2c(cc1-3)OCO2` [MMV1593540], the activity at 25 µM is, setting by setting: (25 uM, mean of three, M. mycetomatis MM55, read-out: Percentage survival at 25um, 25 uM mean) 87.6%; (25 uM, replicate A, M. mycetomatis MM55, read-out: Percentage survival at 25um, 25 um A) 96.5%; (25 uM, replicate B, M. mycetomatis MM55, read-out: Percentage survival at 25um, 25 uM B) 90.9%; (25 uM, replicate C, M. mycetomatis MM55, read-out: Percentage survival at 25um, 25 uM C) 75.5%. For the same compound, the activity at 100 µM by setting is: (100 uM, mean of three, M. mycetomatis MM55, read-out: Percentage survival at 100um, 100 uM mean) 84.2%; (100 uM, replicate 1, M. mycetomatis MM55, read-out: Percentage survival at 100um, 100 uM A (first replicate column)) 80.5%; (100 uM, replicate 3, M. mycetomatis MM55, read-out: Percentage survival at 100um, 100 uM A (third replicate column)) 88.4%. Moreover, the Percent fungal survival at 100 µM (100 uM, replicate 2, M. mycetomatis MM55) amounted to 83.8%.

On to `Cc1cc(NS(=O)(=O)c2ccc(-c3ccc(F)cc3F)cc2)no1` [MMV1782217], for which the activity at 25 µM was 78.8% under setting [16], 76.3% under setting [2], 79.1% under setting [3] and 81.1% under setting [4]. For the same compound, the activity at 100 µM runs as follows: under setting [17], 93.7%; under setting [18], 83.4%; under setting [19], 76.4%; under setting [20], 121%.

Turning to `O=C(O)COc1cccc2c1CC[C@](O)(COC(=O)N(c1ccccc1)c1ccccc1)C2` [MMV1782352], the activity at 25 µM amounted to 89.4% under setting [8], 92.5% under setting [9], 96.3% under setting [10] and 79.5% under setting [11]. The activity at 100 µM reads like this: under setting [12], 88.8%; under setting [13], 91.1%; under setting [14], 97.6%; under setting [15], 77.7%.

Consider `Cc1ccc(C)c(OCCCCCCN2C[C@H](O)[C@@H](O)[C@H](O)[C@H]2CO)c1` [MMV1634401], for which the activity at 25 µM is, setting by setting: under setting [1], 82.7%; under setting [2], 64.4%; under setting [3], 87.6%; under setting [4], 96.1%. For the same compound, the activity at 100 µM amounted to 83.4% under setting [21], 82.2% under setting [5], 82.8% under setting [22] and 80.5% under setting [23].

As to `Cc1cc(C)n2nc(C(=O)NS(=O)(=O)c3c(C)cccc3OC(F)(F)F)nc2n1` [MMV1782402], the activity at 25 µM by setting is: under setting [1], 96.1%; under setting [2], 98.2%; under setting [3], 98.8%; under setting [4], 91.3%. The activity at 100 µM is 91.2% under setting [5], 99% under setting [6] and 82% under setting [7]. For the same compound, the Percent fungal survival at 100 µM (100 uM, replicate 2) amounted to 92.6%.

In the case of `O=c1oc2ccc(Br)cc2cc1CSc1ncc[nH]1` [MMV1782105], the activity at 25 µM was determined as 79.9% under setting [1], 77.1% under setting [2], 83.9% under setting [3] and 78.6% under setting [4]. Besides, the activity at 100 µM by setting is: under setting [21], 62.8%; under setting [5], 63.6%; under setting [22], 59.4%; under setting [23], 68.5%.

Turning to `COc1cc(C(C)(C)CCCC(C)C)cc(OC)c1OC` [MMV1782102], the activity at 25 µM runs as follows: under setting [1], 78.4%; under setting [2], 88.5%; under setting [3], 83%; under setting [4], 63.5%. The activity at 100 µM is, setting by setting: under setting [21], 90.3%; under setting [5], 83.9%; under setting [22], 86%; under setting [23], 75.5%.

On to `CN(C)[C@@H]1C(=O)C(C(N)=O)=C(O)[C@@]2(O)C(=O)C3=C(O)c4c(O)c(NC(=O)CN5CCCC5)cc(F)c4C[C@H]3C[C@@H]12` [MMV1578574], for which the activity at 25 µM worked out at 74.6% (25 uM, mean of replicates, read-out: Percentage survival at 25um, 25 uM mean); 58% under setting [2]; 94% under setting [3]; 72% under setting [4]. In addition, the activity at 100 µM is, setting by setting: (100 uM, mean of replicates, read-out: Percentage survival at 100um, 100 uM mean) 93%; (100 uM, replicate 1, read-out: Percentage survival at 100um, 100 uM A) 92.7%; (100 uM, replicate 2, read-out: Percentage survival at 100um, 100 uM A) 96.8%; (100 uM, replicate 3, read-out: Percentage survival at 100um, 100 uM A) 89.4%.

`CN(C(=O)C1(c2ccc(Cl)cc2)CCC1)c1ccccc1` [MMV1581030]: the activity at 25 µM runs as follows: under setting [8], 63.9%; under setting [9], 61.1%; under setting [10], 107%; under setting [11], 23.2%. Further, the activity at 100 µM runs as follows: under setting [12], 9.02%; under setting [13], 16%; under setting [14], 1.46%; under setting [15], 9.58%.

With `COc1ccc2nc(-c3ccccc3)cc(O)c2c1` [MMV011565], the activity at 25 µM by setting is: under setting [1], 93.4%; under setting [2], 91.4%; under setting [3], 96.2%; under setting [4], 92.7%. Besides, the activity at 100 µM worked out at 78.1% under setting [5], 74.5% under setting [6] and 79.6% under setting [7]. Further, the Percent fungal survival at 100 µM (100 uM, replicate 2) came to 80.2%.

In the case of `CCc1cc(O)c(Oc2ccc(C(N)=O)cc2F)cc1F` [MMV1578564], the activity at 25 µM under setting [1] was 106%, the activity at 25 µM under setting [2] stood at 145%, the activity at 25 µM under setting [3] came to 87.1% and the activity at 25 µM under setting [4] came out at 85.3%. Further, the activity at 100 µM amounted to 80.4% under setting [5], 82.2% under setting [6] and 80.6% under setting [7]. Moreover, the Percent fungal survival at 100 µM (100 uM, replicate 2) was found to be 78.3%.

With `CC1(C)C[C@H]1C(=O)N/C(=C\CCCCSC[C@@H](N)C(=O)O)C(=O)O` [MMV1613559], the “Percentage survival at 100um, 100 uM A” value is 93.1771% and 127.204% and 75.2981%. In addition, the activity at 25 µM (read-out: Percentage survival at 25um, 25 uM B) was 95.4%. Further, for the setting “read-out: Percentage survival at 25um, 25 uM C”, the activity at 25 µM is 77.8%. Besides, where the note is “read-out: Percentage survival at 25um, 25 uM mean”, the activity at 25 µM came out at 92.2%. Under “read-out: Percentage survival at 25um, 25 um A”, the activity at 25 µM turned out to be 103%. For the same compound, the activity at 100 µM (read-out: Percentage survival at 100um, 100 uM mean) is 98.6%.
